Experimental data from patent US3992536A, “Pharmaceutical compositions containing a 1-phenyl-2,2,4,4-C1 -C2 alkyl-3-[4-phenyl of pyridyl)-piperazino]-cyclobutanol-(1) and method of use” (Boehringer Ingelheim GmbH, priority 1972, dated 1976).

What was measured:
mice [1] = assay: Activity on the spontaneous motility in mice (inhibition, photoelectric barriers, Friebel, Sommer and Varadan); format: in vivo, SPF-NMRI-mice, female; conditions: Mus musculus, po, read-out: ED50 (50% inhibition of spontaneous motility)
Experimental: 1. Activity on the spontaneous motility in mice:
The inhibition of spontaneous motility was determined with the aid of photoelectric barriers using an adaption of the method of Friebel, Sommer and Varadan (Arzneimittelforschung 9, 126 (1959)). SPF-NMRI-mice from our own breeding colony, having a body weight between 20 and 26 gm, were used. The number of interruptions in the flow of light was measured by ten photoelectric cells uniformly distributed in the bottom of a cylindrical cage, 25 cm in diameter, using a counting device. Thus, the spontaneous motility was registered as the animals moved over the bottom of the cage. 5 female mice were placed in each cage and their activity after application of the substance was measured for different periods of time relative to control mice. The present decrease in motility observed after application of various dosages relative to sham treated control animals was determined by graphical extrapolation, so that the dosage necessary for a 50% inhibition of spontaneous motility (ED50) could be obtained: […]

mice [2] = assay: Muscle relaxing and sedative activity in mice (slowly rotating wire cylinders, Young and Lewis); format: in vivo, NMRI-mice, female; conditions: Mus musculus, po, read-out: ED50 (50% of the animals fall out of rotating cylinder)
Experimental: 2. Muscle relaxing and sedative activity in mice:
The muscle relaxing and sedative activity was tested according to the method of Young and Lewis (Science 105, 368 (1947)) with female NMRI-mice of a specific breed having a body weight of from 20 to 26 gm. The test apparatus comprises slowly turning wire cylinders, sloped for 30° against the vertical line (length: 43 cm; diameter: 22 cm; mesh-size of the wire netting: 0.6 cm). After peroral administration of a suspension of the substance under test in 1% tylose suspension to groups of 10 mice/dose, their bearing in the slowly rotating cylinders (2 rotations/minute) was observed and was compared with a control group. The dose (ED50) which caused 50% of the animals to fall out after certain test times was determined graphically: […]

[3] = Acute Toxicity (oral, Litchfield and Wilcoxon); format: in vivo; conditions: mouse, in vivo, po; mice; death within 14 days after application
Experimental: (§1) The acute toxicity was determined after oral administration to groups of 10 mice (sex ratio 1:1) from our own breeding colony.

mice [4] = assay: Acute Toxicity (oral, Litchfield and Wilcoxon); format: in vivo; conditions: p.o., within 14 days, printed beside LD50 >3200 mgm/kg
Experimental: as §1

SMILES	ED50 (mice [1]; after 30-45 minutes) [mg/kg]	ED50 (mice [1]; after 90-105 minutes) [mg/kg]	ED50 (mice [1]; after 150-165 minutes) [mg/kg]	ED50 (mice [2]; after 30-60 minutes) [mg/kg]	ED50 (mice [2]; after 90-120 minutes) [mg/kg]	ED50 (mice [2]; after 210-240 minutes) [mg/kg]	ED50 (mice [2]; after 270-300 minutes) [mg/kg]	LD50 at 336 h [3] [mg/kg]	animals died (mice [4])
CC1(C)[C@H](N2CCN(c3ccccn3)CC2)C(C)(C)[C@@]1(O)c1ccc(O)cc1 [A]	7.5	11	6	5.5	7.5	8.5	7.5	338	–
CC1(C)[C@H](N2CCN(c3ccccc3)CC2)C(C)(C)[C@@]1(O)c1ccc(O)cc1 [B]	> 50	3	4	26	11	6	5.5	1340	–
COc1ccc(N2CCN([C@H]3C(C)(C)[C@](O)(c4ccc(O)cc4)C3(C)C)CC2)cc1 [C]	11	7.5	6	20	16	34	15.5	> 6400	–
COc1ccc([C@]2(O)C(C)(C)[C@@H](N3CCN(c4ccccc4)CC3)C2(C)C)cc1OC [D]	26	22	3	> 40	32	16	14	2900	–
CC1(C)[C@H](N2CCN(c3ccc(O)cc3)CC2)C(C)(C)[C@@]1(O)c1ccc(O)cc1 [E]	5	5	< 2.5	10	13	9	3	> 3200	0 out of 10
CC(C)c1ccc([C@]2(O)C(C)(C)[C@@H](N3CCN(c4ccccc4)CC3)C2(C)C)cc1 [F]	95	5	2	29	4	2	3	> 800	–
CC(C)c1ccc([C@]2(O)C(C)(C)[C@@H](N3CCN(c4ccccn4)CC3)C2(C)C)cc1 [G]	7	3	5	11	8	3	8	118	–
CC1(C)[C@H](N2CCN(c3ccccn3)CC2)C(C)(C)[C@@]1(O)c1ccc(Cl)cc1 [H]	> 13	31	> 13	13	22	19	15	442	–
CC(C)(C)c1ccc([C@]2(O)C(C)(C)[C@@H](N3CCN(c4ccccn4)CC3)C2(C)C)cc1 [I]	16	3	3	16	10	17	14	–	–
CC(C)(C)c1ccc([C@]2(O)C(C)(C)[C@@H](N3CCN(c4ccccc4)CC3)C2(C)C)cc1 [K]	15	3	2	48	8	6	1	–	–
CCC(C)c1ccc([C@]2(O)C(C)(C)[C@@H](N3CCN(c4ccccn4)CC3)C2(C)C)cc1 (stereo partly shown) [L]	7	1	1	5	4	2	1	162	–
CC(C)Cc1ccc([C@]2(O)C(C)(C)[C@@H](N3CCN(c4ccccn4)CC3)C2(C)C)cc1 [M]	9	> 3	0.4	4	4	3	2	–	–
CC(C)Cc1ccc([C@]2(O)C(C)(C)[C@@H](N3CCN(c4ccccc4)CC3)C2(C)C)cc1 [N]	8	2	1	65	3	2	3	–	–
CCC(C)c1ccc([C@]2(O)C(C)(C)[C@@H](N3CCN(c4ccccc4)CC3)C2(C)C)cc1 (stereo partly shown) [O]	9	3	2	1	1	2	1	800	–
CCCCc1ccc([C@]2(O)C(C)(C)[C@@H](N3CCN(c4ccccn4)CC3)C2(C)C)cc1 [P]	9	3	2	15	4	3	6	–	–
CCCCc1ccc([C@]2(O)C(C)(C)[C@@H](N3CCN(c4ccccc4)CC3)C2(C)C)cc1 [Q]	34	> 3	4	> 200	22	8	8	–	–
CC1(C)[C@H](N2CCN(c3ccccn3)CC2)C(C)(C)[C@@]1(O)c1cccc(Cl)c1 [R]	> 25	12	13	46	8	8	11	–	–
